This note sets out measurements from ChEMBL document CHEMBL6127088, “Novel 2-aminothiazole analogues both as polymyxin E synergist and antimicrobial agent against multidrug-resistant Gram-positive bacteria” (2024).

Assay [1] has as its system Enterococcus faecalis. As to the kind of experiment: Antimicrobial activity against vancomycin-resistant Enterococcus faecalis ATCC 51299 assessed as minimum inhibitory concentration incubated for 18 hrs by broth microdilution method. In kind it is functional. A general note: Broth dilution looks for growth in wells or tubes with falling amounts of substance.
The subject of assay [2] is Bacillus subtilis. As to the kind of experiment: Antimicrobial activity against Bacillus subtilis ATCC 20678 incubated for 18 hrs by broth microdilution method. In kind it is functional.
Assay [3] deals with Bacillus subtilis. Description: Antibacterial activity against Bacillus subtilis 168 assessed as inhibition of bacterial growth incubated for 18 hrs by broth microdilution method. In kind it is functional.
The subject of assay [4] is Bacillus subtilis. Description: Antibacterial activity against Bacillus subtilis CMCC(B) 63501 assessed as inhibition of bacterial growth incubated for 18 hrs by broth microdilution method. Type of assay: functional.
In assay [5] the test system is Bacillus subtilis. As to the kind of experiment: Antibacterial activity against Bacillus subtilis ATCC 6633 assessed as inhibition of bacterial growth incubated for 18 hrs by broth microdilution method. In kind it is functional.
Assay [6] deals with Lacticaseibacillus rhamnosus. As to the kind of experiment: Antibacterial activity against Lactobacillus rhamnosus assessed as inhibition of bacterial growth incubated for 18 hrs by broth microdilution method. Type of assay: functional.
In assay [7] the test system is Lactiplantibacillus plantarum. As to the kind of experiment: Antibacterial activity against Lactobacillus plantarum assessed as inhibition of bacterial growth incubated for 18 hrs by broth microdilution method. Type of assay: functional.
For assay [8], the system named is Enterococcus faecalis. Description: Antibacterial activity against Enterococcus faecalis ATCC 51299 assessed as inhibition of bacterial growth incubated for 18 hrs by broth microdilution method. In kind it is functional.
For assay [9], the system named is Enterococcus faecalis. As to the kind of experiment: Antibacterial activity against Enterococcus faecalis ATCC 29212 assessed as inhibition of bacterial growth incubated for 18 hrs by broth microdilution method. In kind it is functional.
For assay [10], the system named is Mycolicibacterium smegmatis. As to the kind of experiment: Antibacterial activity against Mycobacterium smegmatis MC 2155 assessed as inhibition of bacterial growth incubated for 18 hrs by broth microdilution method. Type of assay: functional.
Assay [11] concerns Mycolicibacterium smegmatis. As to the kind of experiment: Antibacterial activity against Mycobacterium smegmatis ATCC 704 assessed as inhibition of bacterial growth incubated for 18 hrs by broth microdilution method. Type of assay: functional.
Assay [12] concerns Mycolicibacterium smegmatis. Description: Antibacterial activity against Mycobacterium smegmatis ARC 700044 assessed as inhibition of bacterial growth incubated for 18 hrs by broth microdilution method. In kind it is functional.
For the next assay, the system named is Listeria monocytogenes. Description: Antibacterial activity against Listeria monocytogenes assessed as inhibition of bacterial growth incubated for 18 hrs by broth microdilution method. Type of assay: functional.
Assay [13] has as its system Acinetobacter baumannii. Description: Antimicrobial activity against Acinetobacter baumannii ATCC 19606 incubated for 18 hrs by broth microdilution method. In kind it is functional.
The test system of assay [14] is Acinetobacter baumannii. As to the kind of experiment: Synergistic antimicrobial activity against Acinetobacter baumannii ATCC 19606 assessed as fractional inhibitory concentration index in presence of polymyxin E incubated for 18 to 20 hrs by chequerboard assay. The conditions noted are these: time 18-20 hrs. In kind it is functional.
Another assay relates to Staphylococcus aureus. Description: Antimicrobial activity against methicillin/ofloxacin-resistant Staphylococcus aureus ATCC 43300 assessed as minimum inhibitory concentration incubated for 18 hrs by broth microdilution method. Type of assay: functional.
Assay [15] has as its system Acinetobacter baumannii. As to the kind of experiment: Antibacterial activity against Acinetobacter baumannii ATCC 19606 infected in female Balb/c mouse model assessed as increase in animal survival at 64 mg/kg, iv administered every 12 hrs and measured for 7 days. Type of assay: functional, organism-based.
The subject of assay [16] is Acinetobacter baumannii. As to the kind of experiment: Synergistic antibacterial activity against Acinetobacter baumannii ATCC 19606 infected in female Balb/c mouse model assessed as increase in animal survival at 64 mg/kg, iv administered every 12 hrs in presence of 0.5 mg/kg polymyxin-E and measured for 7 days. In kind it is functional, organism-based.
For assay [17], the system named is Acinetobacter baumannii. As to the kind of experiment: Synergistic antibacterial activity against Acinetobacter baumannii ATCC 19606 assessed as fold change in polymyxin-E MIC at 16 microg/ml incubated for 18 hrs by broth microdilution method relative to polymyxin-E alone. Type of assay: functional. The conditions noted are these: dose 16 µg/ml.
In assay [18] the test system is Acinetobacter baumannii. Description: Synergistic antibacterial activity against Acinetobacter baumannii ATCC 19606 assessed as fold change in polymyxin-E MIC at 2 microg/ml incubated for 18 hrs by broth microdilution method relative to polymyxin-E alone. In kind it is functional. The conditions noted are these: dose 2 µg/ml.

Converted amounts (≈) assume the structure as drawn. The source made the active and inactive calls. The rule behind the calls is not given here. Some results are limits rather than exact numbers.

Consider `CN[C@H](CC(C)C)C(=O)N[C@H]1C(=O)N[C@@H](CC(N)=O)C(=O)N[C@H]2C(=O)N[C@H]3C(=O)N[C@H](C(=O)N[C@H](C(=O)O)c4cc(O)cc(O)c4-c4cc3ccc4O)[C@H](O)c3ccc(c(Cl)c3)Oc3cc2cc(c3O[C@@H]2O[C@H](CO)[C@@H](O)[C@H](O)[C@H]2O[C@H]2C[C@](C)(N)[C@H](O)[C@H](C)O2)Oc2ccc(cc2Cl)[C@H]1O` [VANCOMYCIN], for which the MIC in the assay with Enterococcus faecalis [1] was more than 256 µg/mL; with Bacillus subtilis [2] it was 1 µg/mL (≈ 0.69 µM); in the assay on Bacillus subtilis [3], 1 µg/mL (≈ 0.69 µM); in the assay with Bacillus subtilis [4], 2 µg/mL (≈ 1.38 µM); in the assay with Bacillus subtilis [5], 1 µg/mL (≈ 0.69 µM); in assay [6], 1 µg/mL (≈ 0.69 µM). The MIC in assay [7] was determined as 0.5 µg/mL (≈ 0.345 µM); in the assay with Enterococcus faecalis [8], 2 µg/mL (≈ 1.38 µM); in the assay with Enterococcus faecalis [9], 2 µg/mL (≈ 1.38 µM); in assay [10] it was 2 µg/mL (≈ 1.38 µM); in assay [11], 1 µg/mL (≈ 0.69 µM); in assay [12] it was 2 µg/mL (≈ 1.38 µM). In addition, the MIC with Listeria monocytogenes was found to be 2 µg/mL (≈ 1.38 µM).

As for `Fc1ccc(-c2csc(Nc3ccc(C(F)(F)F)cc3)n2)c(F)c1`, the MIC in the assay on Acinetobacter baumannii [13] is more than 256 µg/mL; in the assay with Staphylococcus aureus, 4 µg/mL (≈ 11.2 µM); with Enterococcus faecalis [1], 4 µg/mL (≈ 11.2 µM); in the assay with Bacillus subtilis [2] it was 4 µg/mL (≈ 11.2 µM). The “fractional inhibitory concentration index (FICI)” value in the assay with Acinetobacter baumannii [14] is given as 0.14. Moreover, the result in the assay with Acinetobacter baumannii [15] and with Acinetobacter baumannii [16] was inactive. Besides, the figures for the “fold change (FC)” value in the assay on Acinetobacter baumannii [17] and in the assay with Acinetobacter baumannii [18] were 16 and 8, respectively.

Regarding `COc1cc(Nc2nc(-c3ccc(F)cc3F)cs2)ccc1C(F)(F)F`, the MIC with Acinetobacter baumannii [13] was more than 256 µg/mL; in the assay on Staphylococcus aureus it was 2 µg/mL (≈ 5.18 µM); in the assay on Enterococcus faecalis [1], 2 µg/mL (≈ 5.18 µM); with Bacillus subtilis [2], 2 µg/mL (≈ 5.18 µM). For the same molecule, in the assay with Acinetobacter baumannii [14], the “fractional inhibitory concentration index (FICI)” value was 0.187.

Take `Fc1ccc(-c2csc(Nc3ccccc3C(F)(F)F)n2)c(F)c1`: the MIC with Acinetobacter baumannii [13] is more than 256 µg/mL; in the assay on Staphylococcus aureus, 8 µg/mL (≈ 22.5 µM); in the assay with Enterococcus faecalis [1] it was 4 µg/mL (≈ 11.2 µM); against Bacillus subtilis [2], 8 µg/mL (≈ 22.5 µM). Further, in the assay on Acinetobacter baumannii [14], the “fractional inhibitory concentration index (FICI)” value worked out at 0.156.

For `Fc1cc(Nc2nc(-c3ccncc3)cs2)cc(C(F)(F)F)c1`, the MIC with Acinetobacter baumannii [13] is 128 µg/mL (≈ 377 µM); in the assay with Staphylococcus aureus, 64 µg/mL (≈ 189 µM); in the assay with Enterococcus faecalis [1], 256 µg/mL (≈ 754 µM); against Bacillus subtilis [2] it was 256 µg/mL (≈ 754 µM). Besides, the “fractional inhibitory concentration index (FICI)” value in the assay on Acinetobacter baumannii [14] was determined as 1.031.

For `Fc1ccc(-c2csc(Nc3cc(C(F)(F)F)cc(C(F)(F)F)c3)n2)c(F)c1`, the MIC in the assay with Acinetobacter baumannii [13] was more than 256 µg/mL; with Staphylococcus aureus, 4 µg/mL (≈ 9.43 µM); in the assay with Enterococcus faecalis [1] it was 4 µg/mL (≈ 9.43 µM); with Bacillus subtilis [2], 4 µg/mL (≈ 9.43 µM). For the same molecule, the “fractional inhibitory concentration index (FICI)” value with Acinetobacter baumannii [14] is reported as 0.094.

With `Fc1ccc(-c2csc(Nc3cc(Cl)cc(C(F)(F)F)c3)n2)c(F)c1`, the minimal inhibitory concentration (MIC) against Acinetobacter baumannii [13] is more than 256 µg/mL; in the assay with Staphylococcus aureus, 4 µg/mL (≈ 10.2 µM); in the assay with Enterococcus faecalis [1], 2 µg/mL (≈ 5.12 µM); with Bacillus subtilis [2], 4 µg/mL (≈ 10.2 µM). Besides, the “fractional inhibitory concentration index (FICI)” value in the assay with Acinetobacter baumannii [14] is 0.156.

Regarding `C/C(=N\Nc1ccccc1)c1csc(Nc2cc(F)cc(C(F)(F)F)c2)n1`, the minimal inhibitory concentration (MIC) against Acinetobacter baumannii [13] is 64 µg/mL (≈ 162 µM); with Staphylococcus aureus it was 16 µg/mL (≈ 40.6 µM); in the assay on Enterococcus faecalis [1], 16 µg/mL (≈ 40.6 µM); with Bacillus subtilis [2] it was 16 µg/mL (≈ 40.6 µM). Further, in the assay with Acinetobacter baumannii [14], the “fractional inhibitory concentration index (FICI)” value is reported as 0.375.

Consider `Fc1ccc(-c2csc(Nc3ccccn3)n2)c(F)c1`, for which the minimal inhibitory concentration (MIC) worked out at 64 µg/mL (≈ 221 µM) with Acinetobacter baumannii [13], 256 µg/mL (≈ 885 µM) in the assay with Staphylococcus aureus, 256 µg/mL (≈ 885 µM) with Enterococcus faecalis [1] and 256 µg/mL (≈ 885 µM) against Bacillus subtilis [2]. Also, the “fractional inhibitory concentration index (FICI)” value in the assay on Acinetobacter baumannii [14] is reported as 1.031.

Turning to `Fc1cc(Nc2nc(-c3ccc(F)cc3F)cs2)cc(C(F)(F)F)c1`, the minimum inhibitory concentration (MIC) in the assay on Acinetobacter baumannii [13] is more than 256 µg/mL; in the assay on Staphylococcus aureus it was 2 µg/mL (≈ 5.34 µM); in the assay with Enterococcus faecalis [1], 2 µg/mL (≈ 5.34 µM); against Bacillus subtilis [2], 2 µg/mL (≈ 5.34 µM). Also, the “fractional inhibitory concentration index (FICI)” value with Acinetobacter baumannii [14] is listed as 0.062.

Turning to `Fc1ccc(-c2csc(Nc3ccc(C(F)(F)F)cc3Cl)n2)c(F)c1`, the MIC against Acinetobacter baumannii [13] is more than 256 µg/mL; with Staphylococcus aureus it was 256 µg/mL (≈ 655 µM); with Enterococcus faecalis [1], 256 µg/mL (≈ 655 µM); against Bacillus subtilis [2], 256 µg/mL (≈ 655 µM). Further, the “fractional inhibitory concentration index (FICI)” value in the assay with Acinetobacter baumannii [14] is 1.031.

Regarding `Fc1cc(Nc2nc(-c3ccco3)cs2)cc(C(F)(F)F)c1`, the MIC in the assay with Acinetobacter baumannii [13] is more than 256 µg/mL; with Staphylococcus aureus, 8 µg/mL (≈ 24.4 µM); in the assay with Enterococcus faecalis [1], 8 µg/mL (≈ 24.4 µM); against Bacillus subtilis [2], 4 µg/mL (≈ 12.2 µM). Further, the “fractional inhibitory concentration index (FICI)” value with Acinetobacter baumannii [14] is 0.187.

For the molecule `C/C(=N\Nc1cc(O)ncn1)c1csc(Nc2cc(F)cc(C(F)(F)F)c2)n1`, the MIC against Acinetobacter baumannii [13] was more than 256 µg/mL; in the assay with Staphylococcus aureus, 128 µg/mL (≈ 310 µM); in the assay on Enterococcus faecalis [1], 256 µg/mL (≈ 621 µM); in the assay with Bacillus subtilis [2], 256 µg/mL (≈ 621 µM). Further, in the assay on Acinetobacter baumannii [14], the “fractional inhibitory concentration index (FICI)” value was found to be 0.562.

Take `COc1ccc(Nc2nc(-c3ccc(F)cc3F)cs2)cc1C(F)(F)F`: the minimal inhibitory concentration (MIC) is more than 256 µg/mL against Acinetobacter baumannii [13], 8 µg/mL (≈ 20.7 µM) in the assay with Staphylococcus aureus, 8 µg/mL (≈ 20.7 µM) in the assay with Enterococcus faecalis [1] and 4 µg/mL (≈ 10.4 µM) against Bacillus subtilis [2]. Moreover, the “fractional inhibitory concentration index (FICI)” value in the assay with Acinetobacter baumannii [14] is on record as 0.094.

Consider `Fc1cc(Nc2nc(-c3cccs3)cs2)cc(C(F)(F)F)c1`, for which the MIC was more than 256 µg/mL with Acinetobacter baumannii [13], 64 µg/mL (≈ 186 µM) in the assay with Staphylococcus aureus, 8 µg/mL (≈ 23.2 µM) with Enterococcus faecalis [1] and 4 µg/mL (≈ 11.6 µM) against Bacillus subtilis [2]. The “fractional inhibitory concentration index (FICI)” value in the assay with Acinetobacter baumannii [14] is listed as 0.187.

In the case of `C/C(=N\Nc1ccc(Cl)nn1)c1csc(Nc2cc(F)cc(C(F)(F)F)c2)n1`, the MIC was more than 256 µg/mL in the assay with Acinetobacter baumannii [13], 64 µg/mL (≈ 149 µM) in the assay on Staphylococcus aureus, 256 µg/mL (≈ 594 µM) with Enterococcus faecalis [1] and 256 µg/mL (≈ 594 µM) in the assay with Bacillus subtilis [2]. The “fractional inhibitory concentration index (FICI)” value with Acinetobacter baumannii [14] was 0.75.

What is called MIC is the lowest concentration found to suppress growth.
